Measured values reported in the NIST ThermoML archive (doi:10.1021/je500079y).
± gives the expanded uncertainty stated by the source.

Test: wn = mass fraction of the nth substance listed
Conditions: 101 kPa, Liquid, Vibrating tube method

CCOS(=O)(=O)[O-].CCn1cc[n+](C)c1 [1-ethyl-3-methylimidazolium ethyl sulfate] + O=C[C@H](O)[C@@H](O)[C@H](O)[C@H](O)CO
mass density [kg/m3]
Conditions	w2 = 0.046	w2 = 0.059	w2 = 0.097	w2 = 0.134	w2 = 0.154	w2 = 0.18
278.15 K	1260.18 ± 0.17	1263.04 ± 0.17	1271.43 ± 0.18	1279.83 ± 0.19	1284.18 ± 0.2	1290.02 ± 0.21
283.15 K	1256.74 ± 0.17	1259.61 ± 0.17	1268.01 ± 0.18	1276.43 ± 0.19	1280.78 ± 0.2	1286.63 ± 0.21
288.15 K	1253.31 ± 0.16	1256.19 ± 0.17	1264.58 ± 0.18	1273.02 ± 0.19	1277.37 ± 0.2	1283.21 ± 0.2
293.15 K	1249.88 ± 0.16	1252.77 ± 0.17	1261.19 ± 0.18	1269.61 ± 0.19	1273.96 ± 0.19	1279.8 ± 0.2
298.15 K	1246.45 ± 0.16	1249.35 ± 0.17	1257.81 ± 0.18	1266.25 ± 0.19	1270.6 ± 0.19	1276.37 ± 0.2
303.15 K	1243.04 ± 0.16	1245.93 ± 0.16	1254.43 ± 0.17	1262.9 ± 0.19	1267.26 ± 0.19	1273 ± 0.2
308.15 K	1239.63 ± 0.16	1242.53 ± 0.16	1251.04 ± 0.17	1259.54 ± 0.18	1263.91 ± 0.19	1269.64 ± 0.2
313.15 K	1236.25 ± 0.16	1239.14 ± 0.16	1247.66 ± 0.17	1256.17 ± 0.18	1260.56 ± 0.19	1266.26 ± 0.2
318.15 K	1232.88 ± 0.16	1235.77 ± 0.16	1244.29 ± 0.17	1252.82 ± 0.18	1257.21 ± 0.19	1262.88 ± 0.19
323.15 K	1229.52 ± 0.15	1232.42 ± 0.16	1240.94 ± 0.17	1249.47 ± 0.18	1253.87 ± 0.19	1259.51 ± 0.19
328.15 K	1226.18 ± 0.15	1229.08 ± 0.16	1237.6 ± 0.17	1246.13 ± 0.18	1250.54 ± 0.18	1256.14 ± 0.19
333.15 K	1222.86 ± 0.15	1225.74 ± 0.15	1234.28 ± 0.17	1242.81 ± 0.18	1247.23 ± 0.18	1252.8 ± 0.19
338.15 K	1219.54 ± 0.15	1222.46 ± 0.15	1230.97 ± 0.16	1239.5 ± 0.17	1243.93 ± 0.18	1249.49 ± 0.19
343.15 K	1216.24 ± 0.15	1219.17 ± 0.15	1227.66 ± 0.16	1236.2 ± 0.17	1240.64 ± 0.18	1246.21 ± 0.19

O=C(CO)[C@@H](O)[C@H](O)[C@H](O)CO [D-fructose] + CCOS(=O)(=O)[O-].CCn1cc[n+](C)c1
mass density [kg/m3]
Conditions	w1 = 0.069	w1 = 0.104	w1 = 0.171	w1 = 0.248	w1 = 0.266	w1 = 0.307
278.15 K	1265.07 ± 0.17	1272.55 ± 0.18	1287.93 ± 0.21	1306.03 ± 0.23	1310.46 ± 0.24	1320.13 ± 0.26
283.15 K	1261.63 ± 0.17	1269.11 ± 0.18	1284.51 ± 0.2	1302.63 ± 0.23	1307.07 ± 0.24	1316.76 ± 0.26
288.15 K	1258.21 ± 0.17	1265.68 ± 0.18	1281.07 ± 0.2	1299.21 ± 0.23	–	1313.36 ± 0.25
293.15 K	1254.78 ± 0.17	1262.28 ± 0.18	1277.63 ± 0.2	1295.77 ± 0.23	1300.21 ± 0.24	1309.93 ± 0.25
298.15 K	1251.35 ± 0.17	1258.88 ± 0.18	1274.21 ± 0.2	1292.29 ± 0.23	1296.72 ± 0.23	1306.43 ± 0.25
303.15 K	1247.93 ± 0.17	1255.47 ± 0.18	1270.78 ± 0.2	1288.73 ± 0.23	1293.13 ± 0.23	1302.82 ± 0.25
308.15 K	1244.5 ± 0.16	1252.05 ± 0.17	1267.3 ± 0.2	1285.14 ± 0.22	1289.48 ± 0.23	1299.08 ± 0.25
313.15 K	1241.08 ± 0.16	1248.62 ± 0.17	1263.76 ± 0.19	1281.5 ± 0.22	1285.81 ± 0.23	1295.34 ± 0.24
318.15 K	1237.67 ± 0.16	1245.19 ± 0.17	1260.19 ± 0.19	1277.84 ± 0.22	1282.13 ± 0.23	1291.62 ± 0.24
323.15 K	1234.25 ± 0.16	1241.74 ± 0.17	1256.61 ± 0.19	1274.19 ± 0.22	1278.47 ± 0.22	1287.95 ± 0.24
328.15 K	1230.83 ± 0.16	1238.29 ± 0.17	1253.07 ± 0.19	1270.58 ± 0.22	1274.85 ± 0.22	1284.29 ± 0.24
333.15 K	1227.42 ± 0.16	1234.86 ± 0.17	1249.57 ± 0.19	1267.01 ± 0.21	1271.26 ± 0.22	1280.66 ± 0.24
338.15 K	1224.03 ± 0.16	1231.44 ± 0.16	1246.09 ± 0.19	1263.46 ± 0.21	1267.69 ± 0.22	1277.05 ± 0.24
343.15 K	1220.66 ± 0.15	1228.04 ± 0.16	1242.65 ± 0.18	1259.93 ± 0.21	1264.14 ± 0.22	1273.45 ± 0.23

OC[C@@H](O)[C@@H](O)[C@H](O)[C@@H](O)CO [D-sorbitol] + CCOS(=O)(=O)[O-].CCn1cc[n+](C)c1
mass density [kg/m3]
Conditions	w1 = 0.037	w1 = 0.056	w1 = 0.113	w1 = 0.16	w1 = 0.182	w1 = 0.202
278.15 K	1255.77 ± 0.16	1258.66 ± 0.17	1267.3 ± 0.18	1274.68 ± 0.19	1278.11 ± 0.2	1281.13 ± 0.21
283.15 K	1252.33 ± 0.16	1255.52 ± 0.17	1263.85 ± 0.18	1271.21 ± 0.19	1274.65 ± 0.2	1277.67 ± 0.2
288.15 K	1248.88 ± 0.16	1251.77 ± 0.17	1260.41 ± 0.18	1267.76 ± 0.19	1271.19 ± 0.2	1274.21 ± 0.2
293.15 K	1245.42 ± 0.16	1248.33 ± 0.16	1256.99 ± 0.18	1264.34 ± 0.19	1267.76 ± 0.2	1270.77 ± 0.2
298.15 K	1241.97 ± 0.16	1244.88 ± 0.16	1253.56 ± 0.18	1260.93 ± 0.19	1264.36 ± 0.19	1267.36 ± 0.2
303.15 K	1238.54 ± 0.16	1241.45 ± 0.16	1250.14 ± 0.17	1257.52 ± 0.19	1260.96 ± 0.19	1263.97 ± 0.2
308.15 K	1235.13 ± 0.16	1238.04 ± 0.16	1246.73 ± 0.17	1254.11 ± 0.18	1257.55 ± 0.19	1260.56 ± 0.2
313.15 K	1231.74 ± 0.15	1234.65 ± 0.16	1243.33 ± 0.17	1250.71 ± 0.18	1254.15 ± 0.19	1257.16 ± 0.19
318.15 K	1228.36 ± 0.15	1231.27 ± 0.16	1239.95 ± 0.17	1247.32 ± 0.18	1250.77 ± 0.19	1253.77 ± 0.19
323.15 K	1225 ± 0.15	1227.91 ± 0.15	1236.59 ± 0.17	1243.95 ± 0.18	1247.4 ± 0.19	1250.4 ± 0.19
328.15 K	1221.65 ± 0.15	1224.56 ± 0.15	1233.25 ± 0.17	1240.6 ± 0.18	1244.04 ± 0.18	1247.03 ± 0.19
333.15 K	1218.32 ± 0.15	1221.23 ± 0.15	1229.92 ± 0.16	1237.26 ± 0.18	1240.7 ± 0.18	1243.69 ± 0.19
338.15 K	1215 ± 0.15	1217.9 ± 0.15	1226.61 ± 0.16	1233.93 ± 0.18	1237.37 ± 0.18	1240.35 ± 0.19
343.15 K	1211.69 ± 0.15	1214.59 ± 0.15	1223.3 ± 0.16	1230.62 ± 0.17	1234.06 ± 0.18	1237.03 ± 0.19

OC[C@@H](O)[C@H](O)[C@@H](O)CO [xylitol] + CCOS(=O)(=O)[O-].CCn1cc[n+](C)c1
mass density [kg/m3]
Conditions	w1 = 0.05	w1 = 0.07	w1 = 0.098	w1 = 0.131	w1 = 0.15	w1 = 0.169
278.15 K	1256.32 ± 0.97	1258.74 ± 0.97	1261.95 ± 0.97	1267.09 ± 0.97	1269.01 ± 0.97	1271.21 ± 0.97
283.15 K	1252.87 ± 0.97	1255.31 ± 0.97	1258.5 ± 0.97	1263.64 ± 0.97	1265.56 ± 0.97	1267.75 ± 0.97
288.15 K	1249.41 ± 0.97	1251.86 ± 0.97	1255.06 ± 0.97	1260.2 ± 0.97	1262.12 ± 0.97	1264.31 ± 0.97
293.15 K	1245.95 ± 0.97	1248.4 ± 0.97	1251.62 ± 0.97	1256.76 ± 0.97	1258.69 ± 0.97	1260.89 ± 0.97
298.15 K	1242.51 ± 0.97	1244.96 ± 0.97	1248.2 ± 0.97	1253.33 ± 0.97	1255.25 ± 0.97	1257.46 ± 0.97
303.15 K	1239.07 ± 0.97	1241.53 ± 0.97	1244.78 ± 0.97	1249.9 ± 0.97	1251.82 ± 0.97	1254.03 ± 0.97
308.15 K	1235.66 ± 0.97	1238.11 ± 0.97	1241.38 ± 0.97	1246.49 ± 0.97	1248.41 ± 0.97	1250.61 ± 0.97
313.15 K	1232.27 ± 0.97	1234.72 ± 0.97	1238.01 ± 0.97	1243.08 ± 0.97	1245 ± 0.97	1247.2 ± 0.97
318.15 K	1228.89 ± 0.96	1231.34 ± 0.97	1234.65 ± 0.97	1239.7 ± 0.97	1241.62 ± 0.97	1243.81 ± 0.97
323.15 K	1225.53 ± 0.96	1227.97 ± 0.97	1231.3 ± 0.97	1236.33 ± 0.97	1238.25 ± 0.97	1240.44 ± 0.97
328.15 K	1222.18 ± 0.96	1224.62 ± 0.97	1227.97 ± 0.97	1232.97 ± 0.97	1234.89 ± 0.97	1237.08 ± 0.97
333.15 K	1218.84 ± 0.96	1221.29 ± 0.96	1224.64 ± 0.97	1229.63 ± 0.97	1231.55 ± 0.97	1233.73 ± 0.97
338.15 K	1215.52 ± 0.96	1217.96 ± 0.96	1221.33 ± 0.97	1226.3 ± 0.97	–	1230.39 ± 0.97
343.15 K	1212.21 ± 0.96	1214.65 ± 0.96	1218.02 ± 0.97	1222.98 ± 0.97	–	1227.06 ± 0.97
